row,SMILES,melting point [°C]
1,COCC1OC(n2cnc3c(NCc4cccc(I)c4)ncnc32)C(O)C1O (stereo not given),155 to 157
2,O=C1c2c(ccc(F)c2Cl)-n2cnc(-c3cccc(Cl)c3)c2[C@@H]2CCCN12,238 to 239
3,CCc1sc2nc(C(=O)O)cn2c1C,243 to 245
4,O=[PH](c1ccc(Cl)cc1)c1ccc(Cl)cc1,124
5,C#Cc1c(-n2ccnc2)nc(C)nc1C(F)(F)F,121 to 122
6,CCc1cccc2c(C(=O)OC)cnnc12,59 to 60
7,CCCCc1nc2c(N)nc3ccccc3c2n1CCCCO,184 to 186
8,O=C(Nc1ccn(CC(O)CF)c(=O)n1)c1ccccc1 (racemic),205
9,CN(C1=CC(=O)CC1)[C@@H]1c2cc(C#N)ccc2OC(C)(C)[C@H]1O (relative stereo),271 to 274
10,COc1ccc2c(c1)CCN1C[C@H]3CCCN(S(C)(=O)=O)[C@H]3C[C@@H]21,165 to 166
11,COCCC1CCN(c2ccc(C#N)c3sccc23)C1 (stereo not given),88 to 89
12,COc1ccc2c(c1)CCC(CN1CCC(O)(c3ccccc3)CC1)C2=O (stereo not given),163 to 165
13,CC(C)(C)OC(=O)c1ncn2c1[C@@H]1CCCN1C(=O)c1c-2ccc(F)c1Cl,211 to 212
14,CCCn1c(=O)c2[nH]c(/C=C/c3cc(OC)c(OC)cc3OC)nc2n(CCC)c1=O,254 to 256
15,COCCOCCOC(=O)/C=C/C(=O)/C=C/c1cccc(OC)c1,59 to 60
16,Cc1cc(Nc2cncc(NC3CCCCC3)n2)n[nH]1,194 to 196
17,CCOC(=O)N1CCc2nnc(NN=C(C)C)cc2C1,171 to 174
18,CON(C)C(=O)C(CO[Si](C)(C)C(C)(C)C)NC(=O)OC(C)(C)C (stereo not given),71 to 72
19,O=CNCc1c(Cl)ccc2cc(Cl)cnc12,110
20,N#CC(C#N)=CN(N=C(C#N)C#N)c1ccc(Cl)c(Cl)c1,162 to 164
21,O=c1c2ccccc2nc(CCc2c[nH]c3ccccc23)n1-c1ccccc1,193 to 194
22,C1=C(c2coc3ccccc23)N2CCCN=C2S1,128 to 130
23,CC(=O)NC12CC3(C)CC(C)(CC(O)(C3)C1)C2,194 to 195
24,O=C(O)[C@@H]1Cc2ccccc2N1c1ccc(Cl)nn1,211 to 212
25,CCCCCCCCCCC[C@@H](O)CCO,59 to 60
26,CC(=O)OC1CSC(Oc2cncc(-c3ccnc(Cl)c3)c2)C(OC(C)=O)C1OC(C)=O (stereo not given),105 to 108

row,SMILES,melting point [°C]
1,O=[N+]([O-])c1ccc(-n2nnnc2-c2ccccc2Br)cc1,169 to 170
2,CN1N=C(C2CCCCC2)CC1=O,170 to 172
3,Cc1c(Cl)c(Cl)c(Cl)c(Cl)c1CCl,102 to 103
4,Nc1ccc2[nH]c(-c3ccccc3)cc2c1,220
5,C#Cc1cccc(Nc2ncnc3[nH]cc(-c4cccc([N+](=O)[O-])c4)c23)c1,189 to 190
6,CN1CCN(c2ccc([N+](=O)[O-])c(N)c2)CC1,109 to 110
7,O=C(O)/C=C/C#Cc1cccc(S(=O)(=O)Nc2ccccc2)c1,188 to 190
8,CCOC(=O)c1cnc2c(O)nccn2c1=O,> 300
9,O=C(NCCCCn1cncn1)c1sc2ccccc2c1Cl,103 to 105
10,CCc1cc(=O)c2c([nH]1)CCCN2,206 to 209
11,O=C(NC1(O)CC1)c1ccccc1,153 to 155
12,CCCCCCN1CN(C)C=C1C(=O)NCCCCCCOc1ccc(OC)cc1,35 to 36
13,Cc1ncn(C)c1CO,125 to 127
14,O=C(NCC1CC1)Nc1ccc(N2CCOCC2)cc1C(=O)NCC1CCN(C(c2ccccc2)c2ccccc2)CC1,218 to 220
15,Cc1cc(O)c(C)c2c1C(C)CC(C)(C)O2 (stereo not given),88 to 89
16,Oc1c(C2CCCC2)cc(CSCc2cc(C3CCCC3)c(O)c(C3CCCC3)c2)cc1C1CCCC1,149 to 150
17,CCCN(CCC)C1COc2cccc(C(=O)C3CC3)c2C1 (stereo not given),100 to 102
18,COc1cc2c(O)c(S(=O)(=O)N(C)C)cnc2cc1Cl,316 to 318
19,CC(C)(C)OC(=O)Nc1cc(N2CCSCC2)c(I)cc1[N+](=O)[O-],132 to 134
20,O=[N+]([O-])c1cc(-c2cn3ncsc3n2)cc(O)c1O,278 to 280
21,O=[N+]([O-])c1ccccc1Nc1ccc(Nc2nccs2)cc1,195 to 197
22,CCOC(=O)CCCCn1c(C(=O)OCC)cc2c(Cl)cc(O)cc21,74 to 76
23,N#CC1(N)CC2(OC(c3ccccc3)C(c3ccccc3)O2)C2C1C2(F)C(N)=O (stereo not given),197
24,CN1C(=O)COc2cccc3nc4c(c1c23)CCCC4,176 to 178
25,CC(=O)/C(=C/I)c1ccccc1,97
26,CCC(CC)(CO)CCS(N)(=O)=O,79 to 80

# Other lines, results leading:
row,melting point [°C],SMILES
1,76.5 to 77,O=c1occc2ccc(Oc3ccc(Cl)cc3)cc12
2,218 to 219,CC(C)(C)c1cc(NC(=O)c2cccn2-c2ccc(N)cc2)cc(C(C)(C)C)c1O
3,86,CCCCCCCCOc1ccc(-c2nnc(-c3cc(Cl)ccc3Cl)o2)cc1
4,94 to 95,O=C(O)c1cc(C(F)(F)F)ccc1OCc1ccccc1
5,146 to 147,COc1cc(C(=O)O)ccc1Cc1cn(C(C)C(=O)N(C)C)c2ccc(C(=O)NCC3CCCC3)cc12 (stereo not given)
6,219 to 222,[N-]=[N+]=NCCCn1ccc(-c2ccc(F)cc2)c1-c1ccncc1
7,232 to 237,O=C(O)c1cn(-c2nnc(C(F)(F)F)s2)c2nc(Cl)c(F)cc2c1=O
8,133 to 135,N#Cc1ccc(-c2ccc(OCC(COc3ccccc3)N(O)C=O)cc2)cc1 (stereo not given)
9,61 to 62,CCOC(=O)Cc1c(C)[nH]c2ccc(F)cc12
10,136 to 138,Cn1c(C(F)(F)F)cc(=O)n(-c2cc(OCC(F)(F)F)c(Cl)cc2F)c1=O
11,215 to 219,CC(C)(C)OCC(NC(=O)c1ccc2c(Cl)cnc(NC(=N)N)c2c1)C(=O)OC(C)(C)C (racemic)
12,168 to 170,CCCc1c(SCCCOc2ccc3c(=O)cc(C(=O)OCC)oc3c2CCC)ccc2c(=O)cc(C(=O)OCC)[nH]c12
13,98 to 98.1,CCCCCOc1ccc(-c2ncc(C#N)cn2)cc1
14,130,O=C(c1ccnc(Cl)c1)N1CC2(CCN(CC=Cc3ccc(C(F)(F)F)cc3)CC2)c2cc(Cl)ccc21
15,298 to 300,Cc1[nH]c(-c2ccccc2)nc1-c1cc(C(C)(C)C)c(O)c(C(C)(C)C)c1
16,173 to 175,CCN1CCCC(NC(=O)c2ccccc2Nc2ccnc3c(Cl)cccc23)C1 (stereo not given)
17,69,CC(C)OC(=O)c1cc(-c2nn(C)c(C(F)(F)F)c2Cl)c(F)cc1Cl
18,109 to 110,COc1ccccc1-c1ccc(C[C@H](NC(=O)C(C)c2c(Cl)cccc2Cl)C(=O)O)cc1 (stereo not given in full)
19,138 to 139,COc1cccc2cc(C)c(C)nc12
20,145 to 147,CSc1nnc(N(C(=O)CCl)c2c(C)cccc2C)n1C
21,156 to 157,CN(C)CCCNC1=C2N=c3cc(Cl)ccc3=C2Oc2ccccc2N1C
22,226 to 228,O=C1Nc2ccccc2CC(C(=O)Nc2ccc(Br)cc2)C1=O (stereo not given)
23,181 to 182,Cc1oc(-c2ccco2)nc1COc1ccc(COc2nn(Cc3ccccc3)cc2C(=O)O)cc1-c1ccccc1
24,118,COc1ccccc1C(=O)NCCc1ccc(-c2ccc(O)cc2)cc1

row,melting point [°C],SMILES
1,117 to 118,CC(C)(C)[Si](C)(C)Oc1ccc(S(N)(=O)=O)cc1
2,165 to 166,CN(c1cc(OC(F)(F)F)cc2cc(C3=NCC(CN4CCOCC4)S3)[nH]c12)S(=O)(=O)c1cccs1 (stereo not given)
3,138 to 140,Cc1cccc(NC(=O)CCCCl)c1CNc1cccn2c(C)c(C)nc12
4,175 to 176,Cc1cc(OCc2ccc(-c3ccc(C(F)(F)F)c(F)c3)nc2C)ccc1OC(C)(C)C(=O)O
5,90,CNC(=O)[C@@H]1CCCN1S(=O)(=O)c1ccc(Cl)c(COc2cccc3c(-n4ccnc4)cc(C)nc23)c1Cl
6,66 to 74,CC(=CC(C)C)c1ccccc1NC(=O)c1cn(C)nc1C(F)(F)F
7,87 to 90,Cc1ccccc1S(=O)(=O)NC(=O)CCSC1c2ccccc2COc2ccc(OCc3ccc4ccc(Cl)cc4n3)cc21 (stereo not given)
8,156 to 157,CC(C)(C)OC(=O)C(Cc1ccccc1)NC(=O)c1ccc2c(Cl)cnc(Cl)c2c1 (racemic)
9,109 to 110,O=C1c2ccccc2C(=O)N1CCCn1ccnc1-c1ccccc1
10,155,NS(=O)(=O)c1cccc(NC(=O)c2cnn3c(C(F)(F)F)cc(-c4ccc(C(F)(F)F)cc4)nc23)c1
11,97 to 100,CC(Sc1nc2ccc(N)cc2s1)C(=O)NCCN(C)Cc1ccc(Cl)c(Cl)c1 (stereo not given)
12,170 to 171,O=C(O)c1ccc(OCCCCc2cc(-c3ccc(C(F)(F)F)cc3)no2)cc1
13,170 to 172,CSc1nnc(-c2ccc(C)cc2)c(-c2ccc(C)cc2)n1
14,250 to 252,COc1ccc(C(=O)Nc2c(Cl)cc(NC(C)=O)cc2Cl)cc1OC1CCCC1
15,74,O=C(c1ccccc1)c1ccc(OCC(O)COCCCCCCCCOCC(O)COc2ccc(C(=O)c3ccccc3)c(O)c2)cc1O (stereo not given)
16,136 to 137,Cc1ccc2nc(-c3ccccc3F)oc2n1
17,93.5 to 94.5,COc1ccc2c(c1)OCC(c1ccc(F)cc1)C2c1ccc(OCCN2CCCCC2)cc1 (stereo not given)
18,168 to 170,CC(=O)n1c(C)cc(=O)n(-c2cc(C(=O)OC(C)C)c(Cl)cc2F)c1=O
19,118 to 120,COC(=O)c1ccc2ccc3ccccc3c(=O)c2c1
20,148,COC(=O)c1c2ccccc2nc2cc(Cl)ccc12
21,111,CCCCCc1noc(-c2ccc(OCCC3CCN(c4ccc(C)nn4)CC3)cc2)n1
22,115 to 116,CC(C)Oc1ccc(C2Cc3ccccc3C(=O)N2C)cc1 (stereo not given)
23,150 to 153,O=C(c1ccccc1)c1ccc(NC(=O)c2cc(Cl)ccc2Cl)cc1
24,146,CC(=O)OCC1OC(n2cnc3c(-n4cnc(-c5ccccc5)c4-c4ccccc4)nc(Cl)nc32)C(OC(C)=O)C1OC(C)=O (stereo not given)

# From a melting point compilation (Tetko et al.; mined from patent text by program, amines drawn as free bases though some values may be those of a salt)
